Data taken from the pKa sets of Baltruschat and Czodrowski (2020).

Conditions: acidic group

Compound | pKa
N#CCCN(CCC#N)c1nnn[nH]1 | 4.85
O=C(O)CSc1[nH]c2cc3ccccc3cc2[nH+]1 | 1.9
Cc1nc2c(O)ccc(O)c2n1C | 9.75
Oc1ccc(-c2ccccc2)cc1 | 9.47
O=C(O)C(CO)[NH2+]Cc1ccccc1O (stereo not given) | 2.1
CC(=O)CC(C)=O | 8.85
Cc1ccc(C(=S)Nc2ccc(F)cc2)cc1 | 11
Nc1ccc(NS(=O)(=O)c2ccccc2)cc1 | 9.05
O=S(=O)(Nc1ccccc1)C(F)(F)F | 4.85
CC(=O)C(Cc1ccccc1)C(C)=O | 10.5
N#Cc1ccccc1-c1nnn[nH]1 | 3.55
NNC(=O)c1ccccc1 | 12.4
NNC(=O)c1cccnc1 | 11.5
O=C1CCc2cc(Cl)ccc2C1 | 12.5
O=C(O)Cn1c2ccccc2c2ccccc21 | 3.55
Oc1onc(-c2ccccc2)c1Br | 2.3
O=[N+]([O-])Cc1cccc(Cl)c1 | 6.63

Compound | pKa
COP(=O)(O)NS(C)(=O)=O | 1.16
CC(C)P(=O)(O)C(C)C | 3.56
O=[N+]([O-])c1ccc(/C(=N\O)c2ccccc2)cc1 | 10.8
N#CC(C#N)=NNc1ccc(OC(F)(F)F)cc1 | 6
C=C(C)/C=C(/C(=O)O)c1ccc([N+](=O)[O-])cc1 | 4.4
CC([NH3+])c1nnn[nH]1 (stereo not given) | 2.63
Sc1ccc(Cl)cc1 | 5.82
[NH3+]C(CC(=O)[O-])C(=O)NC(CC(=O)O)C(=O)[O-] (stereo not given) | 4.7
CCCCP(=O)(O)CCCC | 3.22
O=[N+]([O-])c1cccc(-c2nnn[nH]2)c1 | 3.25
CCNC(=O)CS | 8.14
Nn1cnnc1 | 11.8
[NH3+]CCc1nnn[nH]1 | 3.99
Cc1ccc(O)c(C(=O)[O-])c1 | 14
CCOc1cccc(C)c1C(=O)O | 3.51
Cc1cccc(O)c1C(=O)O | 3.35
C[NH+](C)Cc1cc(Cl)cc(C[NH+](C)C)c1O | 5.2

Further lines, results first:

pKa | Compound
3.03 | Cc1cnc(C(=O)O)s1
10.4 | CC(=O)c1ccccc1O
9.93 | Cc1ccc(O)c2ncccc12
8.75 | CC[NH+](CC)CCCNC(=O)/C=N/O
7.15 | O=C1C=C(S(=O)(=O)[O-])/C(=N/O)c2[nH]ncc21
2.23 | O=S(O)CCCCc1ccccc1
7.8 | CC(=O)c1ccc(O)c(O)c1
1.15 | Cc1nc2c(n1C)C(=O)c1nc[nH+]c(O)c1C2=O
9.62 | Cc1ccc(O)c(O)c1
11.4 | CC(C)N(Cc1ccccc1O)C(C)C
10.4 | Fc1ccc(NC(=S)c2ccc(Cl)cc2)cc1
7.62 | O=C1COCC(=O)C1=O
3.28 | O=C(O)[C@@H]1O[C@H](Oc2ccc(I)cc2)[C@@H](O)[C@H](O)[C@H]1O
4.12 | O=C(O)[C@@H]1C[C@@H]1Cl
14.2 | c1cn[nH]c1
3.42 | C=C(C)C(C)(C(N)=O)C(=O)O (stereo not given)
2.7 | CC1(C)O[C@@H]2CC(=O)OC[C@]23[C@@H]1CC(=O)[C@@]1(C)[C@H]3C[C@](C)(CC2CCOC2)C[C@]12O[C@H]2C(=O)O (stereo not given in full)
9.71 | Nc1ccccc1O
1.8 | O=C([O-])c1cc(O)c(O)c(C(=O)O)[o+]1
3.39 | O=C(O)c1cnoc1
7.8 | O=Cc1cccc(B(O)O)c1
4.95 | O=S(=O)(NBr)c1ccccc1

pKa | Compound
7.65 | COc1cc(C(C)=O)ccc1O
3.96 | C=C=CC(=O)O
3.92 | [NH3+][C@H]1CC[C@H](C(=O)O)CC1
6.91 | Nc1cc[nH+]c2c(O)cccc12
4.22 | CC(C(=O)O)c1ccc(-c2ccccc2)c(F)c1 (stereo not given)
7.7 | NS(=O)(=O)c1nnc(Nc2ccccc2)s1
6.1 | C=CCC1(CC=C)SC(=O)NC1=O
9.51 | Cc1cccc(S(N)(=O)=O)c1
11.1 | N#CCC(=O)NN
9.8 | O=S(Cc1ccccc1)c1ncc[nH]1 (stereo not given)
9.8 | COc1cc2c(cc1O)[C@H]1Cc3cc(OC)c(OC)cc3[C@H](C2)N1C
7.5 | Nc1ccc(S(=O)(=O)Nc2ccc(O)cn2)cc1
4.68 | O=C(O)[C@H]1CCCC[C@@H]1O
7.55 | Oc1ccccc1-c1cc2ccccc2cc1O
9.05 | CCCCCCCCCCCCCC(=O)N(O)c1ccccc1
8.28 | Cc1ccc(O)cc1[N+](C)(C)C
3.76 | CC(C)(C)OC(=O)NS(=O)(=O)c1ccc(S(C)(=O)=O)cc1
4.15 | Cc1cccc(-c2nnn[nH]2)c1
6.12 | C[n+]1cccc2c(O)cccc21
7.8 | O=NCC(=O)c1cccnc1
11 | CN(C)/C=N/c1ccccc1O
7.38 | COc1cc(C=O)ccc1O

Same assay, conditions: basic group

Compound | pKa
CCN(CC)[C@H]1CCC[C@@H]1N(C)C | 9.91
C1CNCCNCCCNCCNC1 | 11.1
Cn1cnc2c1C(=O)c1ncnc([O-])c1C2=O | 6.09
CCNN | 7.95

Continued, values first:

pKa | Compound
10.7 | O=C([O-])C1CCNC1 (stereo not given)
5.79 | Nc1ncnc2ccccc12
5.99 | [NH3+]CCCCCc1ccncc1
7.42 | Nc1ccc2cc3c(ccc4ccccc43)nc2c1
0.4 | Brc1ccc(-c2ncc(-c3ccccc3)o2)cc1
8.37 | CCCCCCCCCCCC[NH2+]CCCN
5.29 | Cc1ccc(O)c2ncccc12
10.4 | CCN(C)CC
